Patent publication US20220355283A1, “DRUG, DRUG MANUFACTURING METHOD, AND WATER PURIFICATION METHOD” (priority 2019, published 2022)
Read-outs that look alike come from different tables or passages of the source.

Assay: Lewis acidity measurement method (1): rate constant for the reaction between CoTPP and oxygen in the presence of a Lewis acid
Type: physicochemical
[1] = rate constant for reaction between CoTPP and oxygen in presence of the Lewis acid, MeCN, room temperature

| Compound | kcat, M^−2 s^−1 | kcat, M^−2 s^−1 [1] |
| --- | --- | --- |
| CCCC[N+](CCCC)(CCCC)CCCC.F[P-](F)(F)(F)(F)F [tetrabutylammonium hexafluorophosphate] | >0.1 M^−2 s^−1 |  |
| benzalkonium chloride |  | 0.18 M^−2 s^−1 |
| benzethonium chloride |  | 0.24 M^−2 s^−1 |
